{"source": "patent US20250073234A1", "about": "“COMBINATION THERAPIES INCLUDING PARP1 INHIBITORS” (Cornell University, priority 2022, published 2025)", "key": {"PARP-1": {"tested_on": "PARP-1", "assay": "Poly(ADP-ribosyl)ation in WPMY-1 cells (immunoblot, immunoprecipitation)", "format": "cell-based, human", "conditions": "added to lactate-treated cells, 48 h", "procedure": "Cells for protein analysis were lysed in RIPA buffer (20 mM Tris-HCl, […], 2 mM EDTA, 1% Triton-X, 10% glycerol, 0.1% SDS, and 0.5% sodium deoxycholate) with phosphatase and protease inhibitors. For immunoprecipitations, cells were lysed in IP lysis buffer (100 mM NaCl, 25 mM Tris, 1% Triton-X, 10% glycerol, with phosphatase and protease inhibitors) and immunoprecipitated with 25 μl of 50% slurry of protein […] beads (Bioworld). Immunoprecipitates were washed three times with lysis buffer, once with high salt (500 mM NaCl), and once more with lysis buffer. Protein concentration in lysates was determined by using Protein Assay Kit (Bio-Rad). Cell extracts and immunoprecipitated proteins were denatured, subjected to SDS-PAGE, transferred to PVDF membranes (GE Healthcare). After blocking with 5% nonfat dry milk in Tris-buffered saline and 0.1% Tween (TBS-T), the membranes were incubated with the specific antibodies (as listed in Key Resources Table) overnight at 4° C. After 2 hours incubation with the appropriate horseradish peroxidase-conjugated antibodies, the immune complexes were detected by chemiluminescence (Thermo Scientific) or Near-infrared fluorescence (LI-COR)."}, "[1]": {"tested_on": "RM1-BoMe3 cells on femur pieces", "assay": "Bone-in-culture array (BICA) with RM1-BoMe3 cells", "format": "cell-based, mouse", "conditions": "bone pre-treated with Olaparib 20 μM 48 h, ADT conditions", "procedure": "8-week-old C57B16 male mice were euthanized, and lower limb bone were collected. Femur epiphyses were dissected and fragmented in 4 pieces by sterilized micro dissecting scissors. Bone pieces were aligned into low-attachment 96-well plates pre-loaded with 200 μL DMEM/F12 supplemented with 5% charcoal striped FBS for ADT conditions. Bone pieces were treated with DMSO or Olaparib 20 μM for 48 h and then 5000 RM1-BoMe3-RFP-Luc cells were seed on top of the bone pieces. After 48 hours, pictures were taken using EVOS M5000 Imaging System and RFP^+ positive areas were measured using Fiji."}, "[2]": {"tested_on": "bone marrow stromal cells", "assay": "qPCR in mouse bone marrow stromal cells", "format": "cell-based", "procedure": "Total RNA from mouse tissues, cells and cultured organoids was extracted using the TRIZOL reagent (Invitrogen) and the RNeasy Mini Kit (QIAGEN), followed by DNase treatment. After quantification using a Nanodrop 1000 spectrophotometer (Thermo Scientific), RNA was either processed for RNA-seq or reverse-transcribed using random primers and MultiScribe Reverse Transcriptase (Applied Biosystems). Gene expression was analyzed by amplifying 20 ng of the complementary DNA using the CFX96 Real Time PCR Detection System with SYBR Green Master Mix (BioRad) and primers described in Table S1. The amplification parameters were set at 95° C. for 30 seconds, 58° C. for 30 seconds, and 72° C. for 30 seconds (40 cycles total). Gene expression values for each sample were normalized to the 18s RNA."}, "WPMY-1 cells": {"tested_on": "WPMY-1 cells", "assay": "Autophagy activation by LC3 lipidation in WPMY-1 cells", "format": "cell-based, human", "conditions": "with lysosomal inhibitors", "source_text": "To knock out PARP-1 in WPMY-1 cells, single-guide RNA sequences targeting PARP-1 exon2 were purchased from Synthego and transduced into WPMY-1 cells with recombinant Streptococcus pyogenes Cas9 protein (Truecut Cas9 Protein v2, Thermo), using the Neon Transfection System 1 (Invitrogen) following the manufacturer's protocol and single clones were expanded and screened by protein immunoblotting. To perform AP1-A binding site editing in the SQSTM promoter in WPMY-1 cells, single-guide RNA sequences targeting the human AP1-A binding site (Synthego) was transduced into cells with a Cas9 protein and a single-stranded donor oligonucleotide (ssODN, IDT) using Neon Electroporation System. Single clones were expanded and screened for AP1-A editing by Sanger sequencing. A point mutation to disrupt the API enhancer element in the p62 promoter was introduced by Site Directed Mutagenesis (Stratagene). Knockdown of MCT1, MCT4, FOS, PARP1, PARP2, CD38, ATG5, and SIRT1-7 genes in WPMY-1 cells were achieved by siRNA transfection using Lipofectamine RNAiMAX Transfection Reagent (Invitrogen). […]\nCells for protein analysis were lysed in RIPA buffer (20 mM Tris-HCl, […], 2 mM EDTA, 1% Triton-X, 10% glycerol, 0.1% SDS, and 0.5% sodium deoxycholate) with phosphatase and protease inhibitors. […] Protein concentration in lysates was determined by using Protein Assay Kit (Bio-Rad). […]"}}, "note": "Entries after “also recorded” stand apart in the source; their conditions may differ."}
{"smiles": "NC(=O)c1ccc[n+]([C@@H]2O[C@H](COP(=O)([O-])OP(=O)(O)OC[C@H]3O[C@@H](n4cnc5c(N)ncnc54)[C@H](O)[C@@H]3O)[C@@H](O)[C@H]2O)c1", "note": "[NAD^+]", "values": [{"measurement": "poly(ADP-ribosyl)ation of c-JUN and c-FOS in lactate-treated cells", "setting": "PARP-1", "value": "rescued the poly(ADP-ribosyl) ation of both transcription factors"}]}
{"smiles": "O=C(c1cc(Cc2n[nH]c(=O)c3ccccc23)ccc1F)N1CCN(C(=O)C2CC2)CC1", "note": "[Olaparib]", "values": [{"measurement": "seeding of cancer cells onto the bone (RFP+ area)", "setting": "[1]", "value": "increased tumor homing of RM1-BoMe3"}, {"measurement": "seeding of cancer cells onto the bone (RFP+ area)", "setting": "[1]; listed as Ola", "value": "significantly increased the seeding of cancer cells onto the bone"}, {"measurement": "markers of stromal activation (Acta2, Has2)", "setting": "[2]; cells isolated from in vivo treated mice, 40 mg/kg", "value": "enhanced expression of markers of stromal activation"}, {"measurement": "markers of TGFβ family (Tgfb3, Tgfb2) and Has3", "setting": "[2]; in vitro, Olaparib 10 μM, 96 h", "value": "increased expression of markers of TGFβ family"}, {"measurement": "autophagy activation (LC3 lipidation)", "setting": "WPMY-1 cells", "value": "induced autophagy activation; also recorded: induces autophagy"}]}
